Here are results for 14 molecules from PubChem BioAssay AID328 (DTP/NCI, 2004).

SMILES strings stand for the structures. Values joined by “and” are separate entries in the source; they are usually repeats but may differ in a detail not shown here. Identical values can stand only once. Toxic doses and inconclusive results are not listed.

The experiment concerns BDF1 mice, P388 leukemia ip, median survival T/C. The experiment is described as follows: NCI In Vivo Anticancer Drug Screen. Data for tumor model P388 Leukemia (intraperitoneal) in B6D2F1 (BDF1) mice. Conditions: endpoint: median survival time, higher = longer survival. An outline of the steps:
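Read-out is survival of treated animals expressed relative to the vehicle group, as a T/C ratio.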

The mark [1] stands for this setting: dose: 100.0 mg/kg/injection, schedule: Q04DX003 (ip), vehicle: saline with Tween-80.
Setting [2] is: dose: 200.0 mg/kg/injection, schedule: Q04DX003 (ip), vehicle: saline with Tween-80.
Where [3] appears, read: dose: 400.0 mg/kg/injection, schedule: Q04DX003 (ip), vehicle: saline with Tween-80.
Setting [4] is: dose: 50.0 mg/kg/injection, schedule: Q01DX009 (ip), vehicle: saline.
[5] abbreviates: dose: 200.0 mg/kg/injection, schedule: Q04DX003 (ip), vehicle: saline.
Where [6] appears, read: dose: 100.0 mg/kg/injection, schedule: Q01DX009 (ip), vehicle: saline with Tween-80.
The mark [7] stands for this setting: dose: 200.0 mg/kg/injection, schedule: Q01DX009 (ip), vehicle: saline with Tween-80.
[8] abbreviates: dose: 50.0 mg/kg/injection, schedule: Q01DX009 (ip), vehicle: saline with Tween-80.
[9] abbreviates: dose: 100.0 mg/kg/injection, schedule: Q01DX001 (ip), vehicle: Klucel (hydroxypropylcellulose) (HPC).
Setting [10] is: dose: 200.0 mg/kg/injection, schedule: Q01DX001 (ip), vehicle: Klucel (hydroxypropylcellulose) (HPC).

In the case of `CN(CCOS(C)(=O)=O)CCOS(C)(=O)=O`, the T/C (dose: 0.01 mg/kg/injection, schedule: Q01DX009 (ip), vehicle: saline) was 172 % of control; the T/C (dose: 0.02 mg/kg/injection, schedule: Q01DX009 (ip), vehicle: saline) is 213 % of control; the T/C (dose: 0.07 mg/kg/injection, schedule: Q04DX003 (ip), vehicle: saline) was 122 % of control; the T/C (dose: 0.11 mg/kg/injection, schedule: Q04DX003 (ip), vehicle: saline) is 154 % of control; the T/C (dose: 0.36 mg/kg/injection, schedule: Q01DX009 (ip), vehicle: saline) was 104 % of control and 218 % of control; the T/C (dose: 0.56 mg/kg/injection, schedule: Q01DX009 (ip), vehicle: saline) was 231 % of control and 260 % of control and 90 % of control. For the same molecule, the T/C is, setting by setting: (dose: 0.75 mg/kg/injection, schedule: Q04DX003 (ip), vehicle: saline) 213 % of control; (dose: 0.84 mg/kg/injection, schedule: Q01DX009 (ip), vehicle: saline) 231 % of control; (dose: 0.99 mg/kg/injection, schedule: Q04DX003 (ip), vehicle: saline) 225 % of control; (dose: 1.5 mg/kg/injection, schedule: Q04DX003 (ip), vehicle: saline) 240 % of control and 250 % of control; (dose: 2.25 mg/kg/injection, schedule: Q04DX003 (ip), vehicle: saline) 150 % of control; (dose: 2.3 micrograms/kg/injection, schedule: Q01DX009 (ip), vehicle: saline) 87 % of control. In addition, the T/C is, setting by setting: (dose: 19.0 micrograms/kg/injection, schedule: Q01DX009 (ip), vehicle: saline) 160 % of control; (dose: 44.0 micrograms/kg/injection, schedule: Q01DX009 (ip), vehicle: saline) 158 % of control; (dose: 66.0 micrograms/kg/injection, schedule: Q01DX009 (ip), vehicle: saline) 220 % of control.

Take `CN(C)c1ccc(NC(=O)Nc2cccc(Cl)c2)cc1`: the T/C is, setting by setting: under setting [1], 95 % of control; under setting [2], 90 % of control; under setting [3], 95 % of control.

Regarding `O=C1/C(=C\c2ccccc2)OC(c2ccccc2)O/C1=C/c1ccccc1` (stereo not drawn), the T/C under setting [4] is 108 % of control; the T/C (dose: 100.0 mg/kg/injection, schedule: Q01DX009 (ip), vehicle: saline) is 95 % of control; the T/C (dose: 100.0 mg/kg/injection, schedule: Q04DX003 (ip), vehicle: saline) was 120 % of control; the T/C (dose: 200.0 mg/kg/injection, schedule: Q01DX009 (ip), vehicle: saline) is 97 % of control; the T/C under setting [5] was 117 % of control; the T/C (dose: 400.0 mg/kg/injection, schedule: Q04DX003 (ip), vehicle: saline) was 114 % of control.

As to `CN(C)C(=O)c1cccc(NC(=O)Oc2ccccc2)c1`, the T/C reads like this: under setting [6], 90 % of control; under setting [7], 95 % of control.

As to `CN(C)CC#N`, the T/C runs as follows: (dose: 10.0 mg/kg/injection, schedule: Q04DX003 (ip), vehicle: saline) 108 % of control; (dose: 20.0 mg/kg/injection, schedule: Q04DX003 (ip), vehicle: saline) 91 % of control; (dose: 40.0 mg/kg/injection, schedule: Q04DX003 (ip), vehicle: saline) 95 % of control.

For `CN1CCN(C(=O)N2c3ccccc3Sc3ccccc32)CC1`, the T/C is 100 % of control (dose: 12.5 mg/kg/injection, schedule: Q01DX009 (ip), vehicle: saline); 110 % of control (dose: 25.0 mg/kg/injection, schedule: Q01DX009 (ip), vehicle: saline); 100 % of control under setting [4]; 100 % of control under setting [5].

Take `O=C1c2ccccc2C2CCCC12` (stereo not drawn): the T/C is 105 % of control under setting [8], 120 % of control under setting [6] and 112 % of control under setting [7].

On to `NC(CCC(=O)NC(CSC(c1ccccc1)(c1ccccc1)c1ccc(F)cc1)C(=O)NCC(=O)O)C(=O)O` (stereo not drawn), for which the T/C is, setting by setting: (dose: 115.0 mg/kg/injection, schedule: Q04DX003 (ip), vehicle: saline) 118 % of control; (dose: 177.0 mg/kg/injection, schedule: Q04DX003 (ip), vehicle: saline with Tween-80) 118 % of control; (dose: 266.0 mg/kg/injection, schedule: Q04DX003 (ip), vehicle: saline with Tween-80) 159 % of control; (dose: 266.0 mg/kg/injection, schedule: Q04DX003 (ip), vehicle: saline) 181 % of control; under setting [3], 231 % of control.

On to `CCCCOP(=O)(O)CCCC.[Al]`, for which the T/C (dose: 12.5 mg/kg/injection, schedule: Q04DX003 (ip), vehicle: saline with Tween-80) is 97 % of control; the T/C (dose: 25.0 mg/kg/injection, schedule: Q04DX003 (ip), vehicle: saline with Tween-80) is 97 % of control; the T/C (dose: 50.0 mg/kg/injection, schedule: Q04DX003 (ip), vehicle: saline with Tween-80) is 91 % of control.

Regarding `CCCCCCCC(=O)CCCCC`, the T/C was 100 % of control under setting [1], 95 % of control under setting [2] and 91 % of control under setting [3].

For `CC(=O)/C(C)=C/C=O`, the T/C is, setting by setting: (dose: 0.25 mg/kg/injection, schedule: Q01DX009 (ip), vehicle: water) 116 % of control; (dose: 0.5 mg/kg/injection, schedule: Q01DX009 (ip), vehicle: water) 89 % of control and 96 % of control and 116 % of control; (dose: 1.0 mg/kg/injection, schedule: Q01DX009 (ip), vehicle: water) 97 % of control and 103 % of control and 116 % of control; (dose: 2.0 mg/kg/injection, schedule: Q01DX009 (ip), vehicle: water) 94 % of control and 97 % of control; (dose: 4.0 mg/kg/injection, schedule: Q01DX009 (ip), vehicle: water) 96 % of control and 97 % of control and 116 % of control; (dose: 8.0 mg/kg/injection, schedule: Q01DX009 (ip), vehicle: water) 103 % of control.

Consider `N#CSCc1ccc(OCc2ccccc2)cc1`, for which the T/C was 100 % of control under setting [8], 103 % of control under setting [6] and 112 % of control under setting [7].

Take `O=C(CC(=O)C(F)(F)F)c1csc2ccccc12`: the T/C runs as follows: (dose: 12.5 mg/kg/injection, schedule: Q01DX009 (ip), vehicle: saline with Tween-80) 100 % of control; (dose: 25.0 mg/kg/injection, schedule: Q01DX009 (ip), vehicle: gum acacia) 112 % of control; (dose: 25.0 mg/kg/injection, schedule: Q01DX009 (ip), vehicle: saline with Tween-80) 112 % of control; (dose: 25.0 mg/kg/injection, schedule: Q04DX003 (ip), vehicle: gum acacia) 111 % of control; (dose: 50.0 mg/kg/injection, schedule: Q01DX001 (ip), vehicle: Klucel (hydroxypropylcellulose) (HPC)) 104 % of control; (dose: 50.0 mg/kg/injection, schedule: Q01DX009 (ip), vehicle: gum acacia) 120 % of control. In addition, the T/C under setting [8] is 91 % of control; the T/C (dose: 50.0 mg/kg/injection, schedule: Q04DX003 (ip), vehicle: gum acacia) is 100 % of control; the T/C (dose: 66.0 mg/kg/injection, schedule: Q01DX009 (ip), vehicle: gum acacia) was 107 % of control; the T/C (dose: 66.0 mg/kg/injection, schedule: Q01DX009 (ip), vehicle: saline with Tween-80) is 120 % of control; the T/C (dose: 75.0 mg/kg/injection, schedule: Q01DX009 (ip), vehicle: Klucel (hydroxypropylcellulose) (HPC)) is 115 % of control; the T/C under setting [9] is 113 % of control. The T/C runs as follows: (dose: 100.0 mg/kg/injection, schedule: Q04DX003 (ip), vehicle: gum acacia) 107 % of control and 111 % of control; (dose: 115.0 mg/kg/injection, schedule: Q01DX009 (ip), vehicle: Klucel (hydroxypropylcellulose) (HPC)) 120 % of control; (dose: 150.0 mg/kg/injection, schedule: Q01DX009 (ip), vehicle: gum acacia) 100 % of control; under setting [10], 86 % of control.

For `O=[N+]([O-])c1cccc(/C=C/c2ccccc2)c1`, the T/C reads like this: under setting [9], 100 % of control; (dose: 100.0 mg/kg/injection, schedule: Q01DX009 (ip), vehicle: Klucel (hydroxypropylcellulose) (HPC)) 95 % of control; under setting [10], 95 % of control; (dose: 200.0 mg/kg/injection, schedule: Q01DX009 (ip), vehicle: Klucel (hydroxypropylcellulose) (HPC)) 95 % of control; (dose: 400.0 mg/kg/injection, schedule: Q01DX001 (ip), vehicle: Klucel (hydroxypropylcellulose) (HPC)) 90 % of control; (dose: 400.0 mg/kg/injection, schedule: Q01DX009 (ip), vehicle: Klucel (hydroxypropylcellulose) (HPC)) 90 % of control.
